The values that follow come from patent US6348468B1, “Pyridazine compounds and compositions containing the same” (Kowa Co., Ltd., priority 1997, dated 2002).

Structures are written as SMILES.

One may read the melting point as the temperature, or range, at which the solid turns liquid.

On to `CSc1ccc(-c2n[nH]c(=O)cc2-c2ccc(F)cc2)cc1` [Example 9, 5-(4-fluorophenyl)-6-[4-(methylthio)phenyl]-2H-pyridazin-3-one], for which the melting point lay within 197.4 to 198.2 °C.
`COc1ccc(-c2cc(=O)n(CCCOc3ccccc3)nc2-c2ccc(OC)cc2)cc1` [Example 20, 5,6-bis(4-methoxyphenyl)-2-[3-(phenoxy)propyl]-2H-pyridazin-3-one] registered a melting point of 110 to 111 °C.
Consider `COc1ccc(-c2cc(=O)n(Cc3ccc(Cl)cc3)nc2-c2ccc(OC)cc2)cc1` [Example 33, 5,6-bis(4-methoxyphenyl)-2-(4-chlorobenzyl)-2H-pyridazin-3-one], for which the melting point fell in the range of 124.2 to 127.3 °C.
With `COC(=O)c1ccc(Cn2nc(-c3ccc(OC)cc3)c(-c3ccc(OC)cc3)cc2=O)cc1` [Example 42, 5,6-bis(4-methoxyphenyl)-2-(4-methoxycarbonylbenzyl)-2H-pyridazin-3-one] the figure was 185.5 to 186.6 °C; with `COc1ccc(-c2cc(=O)n(Cc3ccccn3)nc2-c2ccc(OC)cc2)cc1` [Example 43, 5,6-bis(4-methoxyphenyl)-2-(2-pyridylmethyl)-2H-pyridazin-3-one], 116 to 117 °C; with `COc1ccc(-c2cc(=O)n(Cc3ccncc3)nc2-c2ccc(OC)cc2)cc1` [Example 45, 5,6-bis(4-methoxyphenyl)-2-(4-pyridylmethyl)-2H-pyridazin-3-one], 182.1 to 183.1 °C.
With `COc1ccc(-c2nn(Cc3ccccc3)c(=O)cc2-c2ccc(Cl)cc2)cc1` [Example 49, 5-(4-chlorophenyl)-6-(4-methoxyphenyl)-2-benzyl-2H-pyridazin-3-one], the melting point lay within 165 to 167 °C.
In the case of `COc1ccc(-c2nn(Cc3ccncc3)c(=O)cc2-c2ccc(Cl)cc2)cc1` [Example 50, 5-(4-chlorophenyl)-6-(4-methoxyphenyl)-2-(4-pyridylmethyl)-2H-pyridazin-3-one], the melting point was in the range of 142 to 143 °C.
`CSc1ccc(-c2nn(Cc3ccc(F)cc3F)c(=O)cc2-c2ccc(Cl)cc2)cc1` [Example 53, 5-(4-chlorophenyl)-6-[4-(methylthio)phenyl]-2-(2,4-difluorobenzyl)-2H-pyridazin-3-one] registered a melting point of 157.4 to 157.5 °C.
For the molecule `CSc1ccc(-c2nn(Cc3ccc(Cl)cc3Cl)c(=O)cc2-c2ccc(Cl)cc2)cc1` [Example 54, 5-(4-chlorophenyl)-6-[4-(methylthio)phenyl]-2-(2,4-dichlorobenzyl)-2H-pyridazin-3-one], the melting point was in the range of 154.5 to 155 °C.
Take `CSc1ccc(-c2nn(CC=Cc3ccccc3)c(=O)cc2-c2ccc(Cl)cc2)cc1` [Example 56, 5-(4-chlorophenyl)-6-[4-(methylthio)phenyl]-2-cinnamyl-2H-pyridazin-3-one]: the melting point was 109.3 to 110.2 °C.
Molecule `COc1ccc(Cn2nc(-c3ccc(SC)cc3)c(-c3ccc(F)cc3)cc2=O)cc1` [Example 62, 5-(4-fluorophenyl)-6-[4-(methylthio)phenyl]-2-(4-methoxybenzyl)-2H-pyridazin-3-one] came in with a melting point of 165.3 to 165.7 °C.
For the molecule `CSc1ccc(Cn2nc(-c3ccc(SC)cc3)c(-c3ccc(F)cc3)cc2=O)cc1` [Example 63, 5-(4-fluorophenyl)-6-[4-(methylthio)phenyl]-2-[4-(methylthio)benzyl]-2H-pyridazin-3-one], the melting point fell in the range of 116 to 116.1 °C.
For the molecule `CSc1ccc(-c2nn(Cc3cccnc3)c(=O)cc2-c2ccc(F)cc2)cc1` [Example 67, 5-(4-fluorophenyl)-6-[4-(methylthio)phenyl]-2-(3-pyridylmethyl)-2H-pyridazin-3-one], the melting point lay within 159.8 to 160.7 °C.
`CSc1ccc(-c2nn(Cc3ccccc3)c(=O)cc2-c2ccccc2)cc1` [Example 71, 2-benzyl-6-[4-(methylthio)phenyl]-5-phenyl-2H-pyridazin-3-one] yielded a melting point of 157.3 to 158.4 °C.
Molecule `C[S+]([O-])c1ccc(-c2nn(Cc3ccccc3)c(=O)cc2-c2ccc(Cl)cc2)cc1` (stereo not shown) [Example 85, 2-benzyl-5-(4-chlorophenyl)-6-[4-(methylsulfinyl)phenyl]-2H-pyridazin-3-one] showed a melting point of 143.7 to 144.7 °C.
On to `C[S+]([O-])c1ccc(-c2nn(CC3CC3)c(=O)cc2-c2ccc(Cl)cc2)cc1` (stereo not shown) [Example 86, 5-(4-chlorophenyl)-2-cyclopropylmethyl-6-[4-(methylsulfinyl)phenyl]-2H-pyridazin-3-one], for which the melting point was 152.2 to 152.3 °C.
`C[S+]([O-])c1ccc(-c2nn(CC3CC3)c(=O)cc2-c2ccc(F)cc2)cc1` (stereo not shown) [Example 87, 2-cyclopropylmethyl-5-(4-fluorophenyl)-6-[4-(methylsulfinyl)phenyl]-2H-pyridazin-3-one] gave a melting point of 133.3 to 133.5 °C.
With `COc1ccc(Cn2nc(-c3ccc([S+](C)[O-])cc3)c(-c3ccc(F)cc3)cc2=O)cc1` (stereo not shown) [Example 89, 5-(4-fluorophenyl)-2-(4-methoxybenzyl)-6-[4-(methylsulfinyl)phenyl]-2H-pyridazin-3-one] the figure was 81.3 to 81.5 °C; with `C[S+]([O-])c1ccc(-c2nn(Cc3ccc(F)cc3F)c(=O)cc2-c2ccc(Cl)cc2)cc1` (stereo not shown) [Example 91, 2-(2,4-difluorobenzyl)-5-(4-chlorophenyl)-6-[4-(methylsulfinyl)phenyl]-2H-pyridazin-3-one], 155.6 to 155.7 °C; with `C[S+]([O-])c1ccc(-c2nn(Cc3ccc(Cl)cc3Cl)c(=O)cc2-c2ccc(Cl)cc2)cc1` (stereo not shown) [Example 92, 5-(4-chlorophenyl)-2-(2,4-dichlorobenzyl)-6-[4-(methylsulfinyl)phenyl]-2H-pyridazin-3-one], 236.5 to 237.3 °C.
`CS(=O)(=O)c1ccc(-c2nn(Cc3ccccc3)c(=O)cc2-c2ccc(Cl)cc2)cc1` [Example 97, 2-benzyl-5-(4-chlorophenyl)-6-[4-(methylsulfonyl)phenyl]-2H-pyridazin-3-one] displayed a melting point of 103.2 to 105.7 °C.
With `CS(=O)(=O)c1ccc(-c2n[nH]c(=O)cc2-c2ccc(Cl)cc2)cc1` [Example 98, 5-(4-chlorophenyl)-6-[4-(methylsulfonyl)phenyl]-2H-pyridazin-3-one] the figure was 254 to 254.7 °C.
As for `CS(=O)(=O)c1ccc(-c2nn(CC3CC3)c(=O)cc2-c2ccc(Cl)cc2)cc1` [Example 99, 5-(4-chlorophenyl)-2-cyclopropylmethyl-6-[4-(methylsulfonyl)phenyl]-2H-pyridazin-3-one], the melting point fell in the range of 139.7 to 139.8 °C.
Consider `CS(=O)(=O)c1ccc(-c2nn(CC3CC3)c(=O)cc2-c2ccc(F)cc2)cc1` [Example 100, 2-cyclopropylmethyl-5-(4-fluorophenyl)-6-[4-(methylsulfonyl)phenyl]-2H-pyridazin-3-one], for which the melting point fell in the range of 123.8 to 123.9 °C.
Next, `CS(=O)(=O)c1ccc(-c2nn(Cc3ccc(F)cc3F)c(=O)cc2-c2ccc(Cl)cc2)cc1` [Example 103, 2-(2,4-difluorobenzyl)-5-(4-chlorophenyl)-6-[4-(methylsulfonyl)phenyl]-2H-pyridazin-3-one]: 173.8 to 173.9 °C; `CS(=O)(=O)c1ccc(-c2nn(Cc3ccc(Cl)cc3Cl)c(=O)cc2-c2ccc(Cl)cc2)cc1` [Example 104, 5-(4-chlorophenyl)-2-(2,4-dichlorobenzyl)-6-[4-(methylsulfonyl)phenyl]-2H-pyridazin-3-one]: 232.7 to 234.5 °C; `CS(=O)(=O)c1ccc(-c2nn(Cc3cccnc3)c(=O)cc2-c2ccc(Cl)cc2)cc1` [Example 106, 5-(4-chlorophenyl)-6-[4-(methylsulfonyl)phenyl]-2-(3-pyridylmethyl)-2H-pyridazin-3-one]: 248 to 248.1 °C.
Molecule `CS(=O)(=O)c1ccc(-c2nn(Cc3ccncc3)c(=O)cc2-c2ccc(F)cc2)cc1` [Example 107, 5-(4-fluorophenyl)-6-[4-(methylsulfonyl)phenyl]-2-(4-pyridylmethyl)-2H-pyridazin-3-one] registered a melting point of 253.3 to 254.5 °C.
Turning to `CS(=O)(=O)c1ccc(-c2nn(CCCc3ccccc3)c(=O)cc2-c2ccc(Cl)cc2)cc1` [Example 108, 5-(4-chlorophenyl)-6-[4-(methylsulfonyl)phenyl]-2-(3-phenylpropyl)-2H-pyridazin-3-one], the melting point was 70.2 to 71.6 °C.
In turn, `CS(=O)(=O)c1ccc(-c2nn(Cc3ccccc3)c(=O)cc2-c2ccccc2)cc1` [Example 109, 2-benzyl-6-[4-(methylsulfonyl)phenyl]-5-phenyl-2H-pyridazin-3-one] came in with a melting point of 211 to 212 °C.
As to `COc1ccc(-c2cc(=O)n(Cc3ccc(C(=O)O)cc3)nc2-c2ccc(OC)cc2)cc1` [Example 112, 5,6-bis(4-methoxyphenyl)-2-(4-carboxybenzyl)-2H-pyridazin-3-one], the melting point lay in the range of 241 to 242 °C.
As to `COc1ccc(-c2cc(=O)n(CCC(=O)NCc3ccccc3)nc2-c2ccc(OC)cc2)cc1` [Example 115, 5,6-bis(4-methoxyphenyl)-2-[2-(benzylaminocarbonyl)ethyl]-2H-pyridazin-3-one], the melting point was in the range of 135 to 137 °C.
The molecule `CSc1ccc(C2=NN(Cc3ccccc3)C(=O)CC2c2ccc(Cl)cc2)cc1` (stereo not shown) [Example 121, 2-benzyl-5-(4-chlorophenyl)-4,5-dihydro-6-[4-(methylthio)phenyl]-2H-pyridazin-3-one] registered a melting point of 113.5 to 113.9 °C.
For `CSc1ccc(-c2nn(Cc3ccc(F)cc3F)c(=S)cc2-c2ccc(Cl)cc2)cc1` [Example 133, 5-(4-chlorophenyl)-2-(2,4-difluorobenzyl)-6-[4-(methylthio)phenyl]-2H-pyridazine-3-thione], the melting point was in the range of 176.5 to 176.6 °C.
Regarding `CSc1ccc(-c2n[nH]c(=S)cc2-c2ccc(F)cc2)cc1` [Example 136, 5-(4-fluorophenyl)-6-[4-(methylthio)phenyl]-2H-pyridazine-3-thione], the melting point was in the range of 218.7 to 218.9 °C.
The molecule `CSc1ccc(-c2nn(Cc3ccccc3)c(=S)cc2-c2ccc(F)cc2)cc1` [Example 138, 2-benzyl-5-(4-fluorophenyl)-6-[4-(methylthio)phenyl]-2H-pyridazine-3-thione] showed a melting point of 108.1 to 108.2 °C.
